In data set [1] the target is T1, recombinant human AS (α-synuclein) (Homo sapiens, UniProt P37840).
T1 construct: made in house
Nature of the data set: Thioflavin T fluorescence assay of AS amyloid aggregation. The note with it: 70 μM AS, 10 or 50 μM compound, 37° C., 600 rpm, 20 mM HEPES pH 7.4. Format: biochemical. The protocol:
In order to evaluate the effect of Pegasus (D9) on AS amyloid fibril formation, aggregation reactions were performed according to LeVine (LeVine H, 3rd. Thioflavine T interaction with synthetic Alzheimer's disease beta-amyloid peptides: detection of amyloid aggregation in solution. Protein Sci 1993; 2(3): 404-10; LeVine H, 3rd. Quantification of beta-sheet amyloid fibril structures with thioflavin T. Methods Enzymol 1999; 309: 274-84.). In brief, the formation of cross-ß structures were followed by adding Thioflavin T (ThT), a fluorescent cross-β reporter probe, to aliquots extracted from the incubation mixture at different times.
Expression and purification of recombinant human AS were performed as previously described (Hoyer W, Antony T, Cherny D, Heim G, Jovin T M, Subramaniam V. Dependence of AS aggregate morphology on solution conditions. J Mol Biol 2002; 322(2): 383-93), and purity was assessed by SDS-PAGE. […] The protein concentration was determined by absorbance at 275 nm using the extinction coefficient ε275=5600 cm^−1 M^−1. […]
For aggregation reactions, aliquots of monomeric AS (70 μM) in 20 mM HEPES, pH 7.4 were incubated in a Thermomixer comfort (Eppendorf) at 37° C. and 600 rpm in the absence or presence of 10 or 50 μM D9. Aggregation was monitored with a Horiba FluoroMax-4 spectrofluorometer using the ThT fluorescence assay.

The subject of data set [2] is Bv2 cells. As to the kind of experiment: MTT cytotoxicity assay in microglial Bv2 cell line. Format: cell-based, murine. The note with it: 10 and 20 μM, 24 h. The protocol: The ability of D9 to induce cytotoxicity was also studied using the MTT assay on Bv2 cells, a microglial cell line derived from the C57/BL6 murine model. For this, Bv2 cells were incubated in the presence and in the absence of different Pegasus concentrations at 37° C. Bv2 cells retain the morphology and functional characteristics of microglia and are therefore a widespread microglial model. These cells are immortalized by v-raf/v-myc carrying J2 retrovirus, and express nuclear v-myc and the cytoplasmic v-raf oncogene products as well as the env gp70 antigen at the surface level.
Bv2 cells were seeded in Poly-L-Lysine-treated 96-well plates at 15,000 cells/well and in 100 μl of DMEM supplemented with 10% Fetal Bovine Serum (FBS) and 1% Antibiotics/Antimycotics (PSA) and incubated for 24 h at 37° C. and 5% CO2. Afterwards, cells were treated with a 25 μl aliquot of a 50 µM and 100 μM Pegasus solution (final concentration in well 10 μM and 20 μM) and incubated for 24 h. To determine cell viability, the colorimetric MTT metabolic activity assay was used as previously described by Mosmann. All experiments were performed in sextuplicate, and the relative cell viability (%) was expressed as a percentage relative to the untreated control condition.

The test system of data set [3] is SH-SY5Y cells. As to the kind of experiment: CellROX assay of intracellular reactive oxygen species induced by ASf. Format: cell-based. The note with it: 24 h. The procedure:
In order to characterize the antioxidant properties of D9, its protective action on the AS-induced production of reactive oxygen species (ROS) in a cellular model was assessed. For this, SH-SY5Y cells were treated with fibrils of AS (ASf) (AS incubated 120 h at 37° C. and 600 rpm), and the reactive oxygen species produced were examined using the CellROX® Orange Reagent (Invitrogen), which undergoes oxidation by ROS to form a stable fluorescent compound.
In addition, cells were also treated with doxycycline 10 μM+7 μM ASf (ASf+Doxy) as a positive control, and 10 μM doxycycline alone (Doxy). All conditions were incubated 24 h at 37° C. and 5% CO2. […] Fluorescent images of randomly chosen fields were acquired with identical acquisition parameters using a Zeiss Axio Vert.A1 inverted fluorescence microscope.

For data set [4], the target named is D2 dopamine receptor (Homo sapiens, UniProt P14416). Nature of the data set: D2 receptor agonist assay, cAMP Nomad biosensor, U2OS_cAMPNmd_FP650_D2 cells. Format: cell-based. The note with it: 24 h, 10 serial 1:3 dilutions from 30 μM, triplicate; read-out: EC50, D2 receptor activation. The procedure: HEK_cAMPNmd_FP650_D1 and U2OS_cAMPNmd_FP650_D2 cells were seeded at a density of 30.000 and 20.000 cells/well, respectively, in 96-well plates. Cells were maintained in DMEM or DMEM-F12 medium supplemented with 10% FBS during 24 h at 37° C. in a humidified 5% CO2 atmosphere.
Sequence of D2 dopamine receptor (P14416 whole entry): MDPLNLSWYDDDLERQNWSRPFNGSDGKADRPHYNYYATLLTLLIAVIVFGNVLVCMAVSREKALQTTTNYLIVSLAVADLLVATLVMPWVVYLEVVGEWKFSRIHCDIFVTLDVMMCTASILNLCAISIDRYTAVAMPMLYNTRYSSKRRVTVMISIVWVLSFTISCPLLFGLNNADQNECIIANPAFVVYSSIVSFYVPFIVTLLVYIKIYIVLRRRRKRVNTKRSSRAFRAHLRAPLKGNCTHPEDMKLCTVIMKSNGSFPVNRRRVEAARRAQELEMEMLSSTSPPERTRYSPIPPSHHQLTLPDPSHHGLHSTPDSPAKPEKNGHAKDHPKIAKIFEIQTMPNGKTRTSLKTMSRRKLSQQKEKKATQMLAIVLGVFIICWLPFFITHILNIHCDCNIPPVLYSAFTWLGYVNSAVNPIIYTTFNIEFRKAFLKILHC
Cells were then incubated for 24 h.
To detect Nomad biosensor activation, the assay medium was removed and replaced by […] of DPBS with calcium and magnesium. […] In U2OS_cAMPNmd_FP650_D2 cells, images were acquired using the CellInsight CX7 HCS Platform, and the number of fluorescent vesicles per cell was quantified with the HCS Studio Cell Analysis Software.
The effect of the compounds in the regulation of D1 or D2 receptors' activation was analyzed measuring the CAMP signaling using the Nomad biosensor-based assay.
This same experiment was carried out in the U2OS_cAMPNmd_FP650_D2 cell line (FIG. 10). The effect of the compounds was analyzed quantifying the number of fluorescent vesicles in the cytoplasm of the cells using the HCS Studio Cell Analysis Software.

1 compound from patent US12636371B2, “Chemically coupled transporter for low-hydrophobicity bioactive drugs into the central nervous system” (Skybio LLC, priority 2021, dated 2026) can be followed below.

The EC50 is the concentration that produces a half-maximal response.

Take `C[C@H]1c2ccc(NC(=O)CCC(=O)NCCc3ccc(O)c(O)c3)c(O)c2C(=O)C2=C(O)[C@]3(O)C(=O)C(C(N)=O)=C(O)CC3[C@@H](O)C21` (some centres unmarked) [Pegasus]: the “Inhibition of AS aggregation (ThT fluorescence)” value in data set [1] is “able to inhibit AS aggregation”. In data set [2], the “Cytotoxicity (relative cell viability, MTT)” value is recorded as “did not induce cell toxicity”. Moreover, the “Intracellular ROS induced by ASf in presence of compound” value in data set [3] (7 μM ASf + 10 μM compound) was “no increase in ROS production was observed”. In addition, the “Intracellular ROS induced by compound alone” value in data set [3] (human, 10 μM) is recorded as “neither the presence of D9 nor doxycycline induced intracellular ROS”. In addition, the EC50 in data set [4] was 11.3 µM.
